Numbers after ± are expanded uncertainties.
Columns and labels:
[1] = 101.33 kPa, Liquid, Vibrating tube method
[2] = refractive index (Na D-line) (dimensionless); settings: 293.15 K; 101.33 kPa; Liquid; Standard Abbe refractometry
[3] = Boiling temperature at pressure P; settings: Liquid, Closed cell (Static) method

CCCCO [butan-1-ol]
Settings | mass density [kg/m3]
[1], 298.15 K | 805.851 ± 0.16

Settings | refractive index
[2] | 1.39705 ± 0.0007

C1CCCCC1 [cyclohexane]
Settings | mass density [kg/m3]
[1], 293.15 K | 778.414 ± 0.61

Settings | refractive index
[2] | 1.42655 ± 0.0008

CC(C)OC(C)C [diisopropyl ether]
Settings | mass density [kg/m3]
[1], 298.15 K | 718.511 ± 0.25

Settings | refractive index
[2] | 1.36547 ± 0.00072

CCO [ethanol]
Settings | Boiling temperature at pressure P [°C] | mass density [kg/m3]
[1], 298.15 K | – | 784.89 ± 0.16
[3], 17.99 kPa | 40.00 ± 0.51 | –
[3], 20 kPa | 42.23 ± 0.51 | –
[3], 29.6 kPa | 50.00 ± 0.45 | –
[3], 40 kPa | 56.49 ± 0.43 | –
[3], 47.01 kPa | 60.00 ± 0.43 | –
[3], 49.99 kPa | 61.37 ± 0.42 | –
[3], 59.93 kPa | 65.51 ± 0.42 | –
[3], 69.95 kPa | 69.13 ± 0.41 | –
[3], 79.91 kPa | 72.33 ± 0.41 | –
[3], 89.92 kPa | 75.16 ± 0.41 | –
[3], 100.07 kPa | 77.90 ± 0.41 | –

Settings | refractive index
[2] | 1.35929 ± 0.0007

CO [methanol]
Settings | Boiling temperature at pressure P [°C] | mass density [kg/m3]
[1], 298.15 K | – | 786.624 ± 0.16
[3], 19.97 kPa | 28.22 ± 0.48 | –
[3], 24.04 kPa | 32.00 ± 0.46 | –
[3], 29.98 kPa | 36.41 ± 0.44 | –
[3], 39.04 kPa | 42.00 ± 0.43 | –
[3], 50.01 kPa | 47.57 ± 0.42 | –
[3], 60.94 kPa | 52.00 ± 0.42 | –
[3], 69.96 kPa | 55.42 ± 0.41 | –
[3], 79.92 kPa | 58.59 ± 0.41 | –
[3], 89.99 kPa | 61.58 ± 0.41 | –
[3], 100 kPa | 64.18 ± 0.41 | –

Settings | refractive index
[2] | 1.32643 ± 0.0007

From the NIST ThermoML archive (doi:10.1016/j.jct.2012.11.005)
